# Source: patent US20090257999A1, “Method of preventing contrast-induced nephropathy” (Inotek Pharmaceuticals Corporation, priority 2007, published 2009)
# Key:
# Format in all cases: in vivo, rat
# [1] = system: diabetic rats; assay: CIN animal model, Example 1: fractional excretion of Na+ (FENa, tubular function); settings: at 96 hours
# Protocol: Male Wistar rats (150-200 g; Harlan Nossanr) were housed in a controlled environment and provided with standard rodent chow and water.
# After 12 hours of fasting, the animals received a single 60 mg/kg intravenous (i.v.) injection of streptozotocin (Sigma, St. Louis, Mo.) in 10 mM sodium citrate buffer, pH 4.5 (see figure showing CIN model). Control non-diabetic animals were fasted and received citrate buffer alone. After 24 hours, animals with blood glucose levels greater than 250 mg/dl were considered diabetic. All experiments were performed 10 days following the induction of diabetes. The diabetic state was evaluated daily by determination of the blood glucose levels. […]
# At the indicated time point blood samples were collected via the lateral tail vein into S1/3 tubes containing serum gel. […] All plasma samples were analyzed for biochemical parameters within 24 hours of collection. Plasma concentrations of urea and creatinine were measured as indicators of impaired glomerular function. Urine samples were collected at 96 hour after contrast agent administration and the volume of urine produced was recorded. Urine concentrations of Na^+ were measured and were used in conjunction with plasma Na^+ concentrations to calculate fractional excretion of Na^+ (FENa) using standard formulae, which was used as an indicator of tubular function. […]
# [2] = system: Myeloperoxidase (MPO) activity in kidneys; assay: Kidney myeloperoxidase (MPO) activity, Example 1; settings: at 96 hours
# Protocol: (§1) Experimental model for assessing the effects of Metalloporphyrin A on CIN: Diabetic (n=8) for group #'s 1-9 or wild-type rats (n=10) for group #'s 10 and 11 were treated with drug 60 min prior to contrast agent administration. At the “0” time point, Iomeprol was administered with ensuing drug intervention dosing every 12 hours for Metalloporphyrin A from 24-84 hours or every 24 hours for NAC from 24-72 hours. At the 96 hour time point, kidneys were harvested for histopathology, MPO and MDA measurements. From 0-96 hours, plasma samples from all animals per group were screened for urea, creatinine, fractional excretion of Na^+ and NGAL.
# Myeloperoxidase (MPO) activity in kidneys was used as an indicator of polymorphonuclear (PMN) cell infiltration activation using a method previously described (Hillegass et al, J. Pharmacol. Methods. 24(4):285-95,1990).
# At the end of the experiments, kidney tissue was weighed and homogenized in a solution containing 0.5% (wt/vol) hexadecyltrimethylammonium bromide dissolved in 10 mmol/L potassium phosphate buffer (pH 7.4) and centrifuged for 30 minutes at 20,000 g at 4° C. […] The rate of change in absorbance was measured spectrophotometrically at 650 nm. MPO activity was defined as the quantity of enzyme required to degrade 1 mmol of H2O2 at 37° C. and was expressed in U/g wet tissue.
# [3] = system: diabetic rats; assay: Histologic evaluation of kidney outer medulla damage, Example 1; settings: at 96 hours
# Protocol: as §1
# At postmortem, a […] section of kidney was removed and placed in formalin and processed through to wax. […] sections were cut and stained with hematoxylin and eosin. Histologic assessment of tubular necrosis was determined semi-quantitatively using a method modified from McWhinnie et al, Transplantation. 42(4):352-81986, 1986.
# Histologic assessment of outer medulla damage was examined by an experienced morphologist, who was not aware of the sample identity. […]
# [4] = system: Neutrophil gelatinase-associated lipocalin (NGAL); assay: Plasma NGAL by ELISA, Example 1; settings: diabetic rats + i.v. Iomeprol; Metalloporphyrin A 1 mg/kg or NAC 10 mg/kg; versus drug placebo; readings 0-96 hours
# Protocol: as §1
# Neutrophil gelatinase-associated lipocalin (NGAL) has recently been proposed as a real-time indicator of active kidney damage by Mori, K., Nakao, K., Kidney International (2007) 71, 967-970. The plasma from 5 different diabetic animals per experimental group were taken for measurement of NGAL by ELISA as outlined below:
# 1) For diabetic rats without contrast agent, non-diluted plasma was used. For diabetic rats with contrast agent, plasma samples were diluted 1:400 with saline prior to use.
# 100 microliter diluted/non-diluted plasma samples or recombinant NGAL protein (25-1000 ng/ml) were added to pre-coated ELISA plates containing a monoclonal antibody raised against NGAL. […]
# 5) Plates were read at an absorbance of 450 nm.
# [5] = system: diabetic rats; assay: CIN model, Example 2: NAC and Metalloporphyrin A in diabetic rats; settings: diabetic (STZ) rats + Iomeprol, NAC 3-100 mg/kg i.v., or NAC 10-100 mg/kg + Metalloporphyrin A 1 mg/kg i.v., at −30 min
# Protocol: Male Wistar rats (150-200 g; Harlan Nossanr) were housed in a controlled environment and provided with standard rodent chow and water. Diabetes was induced after 2 hours of fasting. The animals received a single 60 mg/kg intravenous (i.v.) injection of streptozotocin (Sigma, St. Louis, Mo.) in 10 mM sodium citrate buffer, pH 4.5 (see figure). Control non-diabetic animals were fasted and received citrate buffer alone. After 24 hours, animals with blood glucose levels greater than 250 mg/dl were considered diabetic. The diabetic state was confirmed by evaluating the blood glucose levels. Ten days following the induction of diabetes rats were anesthetized with 90 mg/kg ketamine i.m. and 10 mg/kg xylazine i.m. and were treated with the contrast agent iomeprol (10 mL/kg injected via the lateral tail vein) or with 0.9% normal saline. The contrast agent used was the low osmolar non-ionic monomer iomeprol (Iomeron, 400 mgI mL-1; Bracco SpA, Milan, Italy) with an osmolality of 726±34 mosmol/kg H2O.
# Blood samples were collected via the lateral tail vein into S1/3 tubes containing serum gel at 0 and 24 hours. The samples were centrifuged (6000 r.p.m. for 3 min) to separate plasma. All plasma samples were analyzed for biochemical parameters within 24 hours after collection. Plasma and urine concentrations of creatinine were measured as indicators of impaired glomerular function. Creatinine clearance was calculated using the following formula (=UV/P), where U refers to Creatinine concentration in urine, V to urine volume/min and P to serum creatinine.
# Protein concentration in urine was determined by Bio-Rad DC Protein Assay (BioRad, Richmond Calif.). The Bio-Rad DC protein assay is a colorimetric assay for protein concentration.
# [6] = diabetic rats + i.v. Iomeprol, Metalloporphyrin A 30-1000 μg/kg or NAC 10 mg/kg i.p.
# [7] = diabetic rats + i.v. saline (no contrast agent), Metalloporphyrin A 1000 μg/kg or NAC 10 mg/kg i.p.
smiles,measurement,setting,value
"CC(=O)N[C@@H](CS)C(=O)O [NAC, N-acetylcysteine]",fractional excretion of sodium (FENa),[1]; [6],significant reductions
same,fractional excretion of sodium (FENa),[1]; [7],significantly reduced the increase
same,kidney MPO activity,[2]; [6],significant reductions
same,kidney MPO activity,[2]; [7],significantly reduced the increase
same,kidney injury (histological score),[3]; [6],significant reductions
same,kidney injury (histological score),[3]; [7],significantly reduced
same,plasma NGAL levels,[4],significantly lower
same,plasma creatinine,[5]; 24 h,significant reductions
same,total protein concentration in the urine,[5]; 24 hours,significant reductions
same,urine αGST concentration,[5]; 24 hours,significant reduction
